Assay results taken from US20230134782A1, “TREATMENT OF SKIN CONDITIONS USING HIGH KRAFFT TEMPERATURE ANIONIC SURFACTANTS” (ARCUTIS BIOTHERAPEUTICS, INC., priority 2020, published 2023).

test: Krafft temperature determination in distilled water (water bath, dissolution and frothing on shaking); assay type: physicochemical; details: aqueous solution in distilled water: 0.012% ceteth-10 phosphate, 0.017% dicetyl phosphate, 0.014% sodium cetostearyl sulfate
Procedure: 0.0012 grams of ceteth-10 phosphate (Moravek Lot 671-144-000-A-20190821-JHO) was weighed into a 20 mL glass scintillation vial. 10.0113 grams of distilled water was added to the scintillation vial and the vial was tightly capped and placed in a water bath. […] The surfactant remained as waxy particles sedimented on the bottom of the vial. After equilibration at 53.0° C. for 435 minutes, ceteth-10 phosphate had dissolved and the sample frothed when shaken. The Krafft temperature of a 0.012% ceteth-10 phosphate aqueous solution was determined to be 53.0° C.
0.0019 grams of dicetyl phosphate (Sigma dihexadecyl phosphate lot STBH2863) was weighed into a 20 mL glass scintillation vial. 11.2262 grams of distilled water was added to the scintillation vial and the vial was tightly capped and placed in a water bath. […] After equilibration at 58.0° C. for 450 minutes, dicetyl phosphate had dissolved and the sample frothed when shaken. The Krafft temperature of a 0.017% dicetyl phosphate aqueous solution was determined to be 58.0° C. 0.0024 grams of sodium cetostearyl sulfate (BASF Lanette E Granules Lot 0021826181) was weighed into a 20 mL glass scintillation vial. 17.0763 grams of distilled water was added to the scintillation vial and the vial was tightly capped and placed in a water bath. […] The Krafft temperature of a 0.014% sodium cetostearyl sulfate aqueous solution was determined to be 41.0° C.

| Compound | Krafft Temperature [°C] |
| --- | --- |
| ceteth-10 phosphate [Ceteth - 10 phosphate] | 53 |

same assay, conditions: aqueous solution in distilled water: 0.012% ceteth-10 phosphate, 0.017% dicetyl phosphate, 0.014% sodium cetostearyl sulfate; listed as ceteth-10 phosphate

| Compound | Krafft Temperature [°C] |
| --- | --- |
| ceteth-10 phosphate [Ceteth - 10 phosphate] | 53 |

test: not given; details: commonly used anionic surfactants; no source or concentration printed; cited from earlier work

| Compound | Krafft Temperature [°C] |
| --- | --- |
| CCCCCCCCCCCCOS(=O)(=O)O.N [Ammonium lauryl sulfate] | 10 |
| CCCCCCCCCCCCCCCCOS(=O)(=O)[O-].[Na+] [Sodium cetyl sulfate] | 45.0 |
| CCCCCCCCCCOS(=O)(=O)[O-].[Na+] [Sodium decyl sulfate] | 8.0 |
| CCCCCCCCCCS(=O)(=O)[O-].[Na+] [Sodium decyl sulfonate] | 22.5 |
| CCCCCCCCCCCCCCCCS(=O)(=O)[O-].[Na+] [Sodium hexadecyl sulfonate] | 57.0 |
| CCCCCCCCCCCC(=O)[O-].[Na+] [Sodium laurate] | 21.5 |
| CCCCCCCCCCCCOP(=O)([O-])[O-].[Na+].[Na+] [Sodium lauryl phosphate] | 31.5 |
| CCCCCCCCCCCCOS(=O)(=O)[O-].[Na+] [Sodium lauryl sulfate] | 16.0 |
| CCCCCCCCCCCCCC(=O)[O-].[Na+] [Sodium myristate] | 39 |
| CCCCCCCCCCCCCCOS(=O)(=O)[O-].[Na+] [Sodium myristyl sulfate] | 30.0 |
| CCCCCCCCCCCCCCS(=O)(=O)[O-].[Na+] [Sodium myristyl sulfonate, Sodium myristyl* sulfonate] | 48.0 |
| CCCCCCCCCCCCCCCC(=O)[O-].[Na+] [Sodium palmitate] | 69 |
| CCCCCCCCCCCCCCCCCC(=O)[O-].[Na+] [Sodium stearate] | 71 |
| CCCCCCCCCCCCCCCCCCOS(=O)(=O)[O-].[Na+] [Sodium stearyl sulfate] | 56.0 |
| Sodium laureth sulfate | <0 |
